For 20 compounds, Eff. % and LogP results are on record in patent US9090600B2, “Fungicidal 4-substituted-3-{phenyl[(heterocyclylmethoxy)imino]methyl}-1,2,4-oxadizol-5(4H)-one derivatives” (BAYER INTELLECTUAL PROPERTY GMBH, priority 2011, dated 2015).

Read-outs that look alike come from different tables or passages of the source. Marks after values point to notes of the source that are not given here.

In one data set the test system is Pythium irregulare. The data set can be described thus: Pythium test (corn)/seed treatment. In kind it is in vivo. The settings on record: 10 g/dt seed of active ingredient, emerged seedlings after 7 days at 10° C. then 14 days at 20° C. The method, then: (§1) The test is performed under greenhouse conditions.
Corn seeds, treated with the active compound or compound combinations, solved in N-methyl-2-pyrrolidon and diluted with water to the desired dosages, were sown in 6*6 cm pots containing 4 cm of a 1:1 mix of steamed field soil and sand.
Perlite was incubated with mycelium fragments of Pythium irregulare. 5 ml of infected perlite was scattered between the treated cotton seeds. Seeds were than covered by the 1:1 mix of steamed field soil and sand. Pots were incubated in the greenhouse 7 days at 10° C. and 80% relative humidity and then 14 days at 20° C. and 80% relative humidity.
(§2) Assessment consisted of counting of emerged seedlings. 0% means an efficacy which corresponds to that of the control, while an efficacy of 100% means that all seedlings have emerged.

In data set [1] the test system is Phytophthora infestans. In kind it is in vivo. As to conditions: tomato, preventive spray, 100 ppm of active ingredient, evaluated 7 days after inoculation.
A further data set deals with Pythium aphanidermatum. Nature of the data set: Pythium test (cucumber)/seed treatment. In kind it is in vivo. As to conditions: 10 g/dt seed of active ingredient, emerged seedlings after 7 days. As to the method:
as §1
Cucumber seeds, treated with the active compound or compound combinations, solved in N-methyl-2-pyrrolidon and diluted with water to the desired dosages, were sown in 6*6 cm pots containing 4 cm of a 1:1 mix of steamed field soil and sand.
Perlite was incubated with mycelium fragments of Pythium aphanidermatum. 5 ml of infected perlite was scattered between the treated […] seeds. Seeds were then covered by the 1:1 mix of steamed field soil and sand. Pots were incubated in the greenhouse 7 days at 24° C. and 80% relative humidity. Assessment consisted of counting of emerged seedlings. 0% means an efficacy which corresponds to that of the control, while an efficacy of 100% means that all seedlings have emerged.

The conditions of data set [2]: pH 2.7.
The subject of a further data set is Plasmopara viticola. The data set can be described thus: Plasmopara test (grapevines)/preventive. The settings on record: preventive spray, 10 ppm of active ingredient, evaluated 6 days after inoculation. In kind it is in vivo. Put shortly: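 Young grapevines sprayed preventively with compound formulated in acetone/dimethylacetamide with emulsifier, diluted in water, then inoculated with P. viticola spores after drying. Held 1 day at ~20 °C/100% RH, 4 days in greenhouse at ~21 °C/~90% RH, then misted for 1 day. Efficacy scored 6 days post-inoculation (0% = untreated control, 100% = no disease).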

For another data set, the system named is Pythium ultimum. Nature of the data set: Pythium test (cotton)/seed treatment. It is filed as in vivo. The settings on record: 10 g/dt seed of active ingredient, emerged seedlings after 7 days. The method, then: as §1
Cotton seeds, treated with the active compound or compound combinations, solved in N-methyl-2-pyrrolidon and diluted with water to the desired dosages, were sown in 6*6 cm pots containing 4 cm of a 1:1 mix of steamed field soil and sand.
Perlite was incubated with mycelium fragments of Pythium ultimum. 1 ml of infected perlite was scattered between the treated cotton seeds. Seeds were then covered by light expanded clay aggregate. Pots were incubated in the greenhouse 7 days at 20° C. and 80% relative humidity.
as §2

Data set [3] relates to Phytophthora infestans. It is filed as in vivo. As to conditions: tomato plants, spray, 500 ppm, grading 5 days after contamination.
In another data set the test system is Alternaria brassicae. Nature of the data set: In vivo test on Alternaria brassicae (leaf spot of crucifers). The settings on record: radish plants, spray, 500 ppm, grading 6 to 7 days after contamination. As to the method:
(§3) The active ingredients tested are prepared by homogenization in a mixture of acetone/tween/DMSO, then diluted with water to obtain the desired active material.
Radish plants (Pernot variety), sown on a 50/50 peat soil-pozzolana substrate in starter cups and grown at 18-20° C., are treated at the cotyledon stage by spraying with the active ingredient prepared as described above.
Plants, used as controls, are treated with the mixture of acetone/tween/water not containing the active material.
After 24 hours, the plants are contaminated by spraying them with an aqueous suspension of Alternaria brassicae spores (40,000 spores per cm^3). The spores are collected from a 12 to 13 days-old culture.
The contaminated radish plants are incubated for 6-7 days at about 18° C., under a humid atmosphere.
Grading is carried out 6 to 7 days after the contamination, in comparison with the control plants.
Under these conditions, good protection (at least 70%) is observed at a dose of 500 ppm with the following compounds: […]

In a further data set the test system is Uromyces appendiculatus. Nature of the data set: In vivo test on Uromyces appendiculatus (brown rust of bean). The settings on record: Saxa variety plants, spray, 500 ppm, grading 10 days after contamination. The method, then: as §3
Wheat plants (Saxa variety) sown on 50/50 peat soil-pozzolana substrate in starter cups and grown at 24° C., are treated at the 2-leaf stage (9 cm tall) by spraying with the aqueous suspension described above.
Plants, used as controls, are treated with an aqueous solution not containing the active material.
After 24 hours, the plants are contaminated by spraying the leaves with an aqueous suspension of Uromyces appendiculatus spores (150.000 spores per ml). The spores are collected from a 10-day-old contaminated […] and are suspended in water containing 2.5 ml/l of tween 80 10%. The contaminated […] are incubated for 24 hours at 20° C. and at 100% relative humidity, and then for 10 days at 20° C. and at 70% relative humidity. Grading is carried out 10 days after the contamination, in comparison with the control plants.
Under these conditions, good (at least 70%) or total protection is observed at a dose of 500 ppm with the following compounds: […]

Another data set concerns Puccinia recondita. Nature of the data set: In vivo test on Puccinia recondita (brown rust). As to conditions: wheat plants, spray, 500 ppm, grading 10 days after contamination. Put shortly: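 Wheat (Scipion) at the 1-leaf stage sprayed with compound suspension (acetone/tween/DMSO diluted in water), then inoculated 24 h later with Puccinia recondita spores at 100.000 spores per ml. Plants were held 24 h at 20 °C/100% RH, then 10 days at 20 °C/70% RH; protection graded 10 days post-inoculation versus untreated controls.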

A further data set relates to Pyricularia grisea. In kind it is in vivo. As to conditions: rice plants, spray, 500 ppm, grading 6 days after contamination.
Data set [4] relates to Mycosphaerella graminicola. Nature of the data set: In vivo test on Mycosphaerella graminicola (wheat leaf spot). The settings on record: wheat plants, spray, 500 ppm, grading 21 to 28 days after contamination. Put shortly: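 Scipion wheat at 1-leaf stage was sprayed with compound suspension (acetone/tween/DMSO diluted in water), then inoculated 24 h later with spores (500.000/ml). Plants were held 72 h at 18° C and 100% RH, then 21 to 28 days at 90% RH. Efficacy was graded as % versus untreated controls.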

What is called LogP is a log measure of how a compound divides between an organic and an aqueous phase. For `CCCCCOC(=O)Nc1cccc(CO/N=C(/c2ccccc2)c2noc(=O)n2C)n1` [Example 2], the Eff. % in the data set with Pythium irregulare came to 100%; in the data set on Phytophthora infestans [1], 100%; with Pythium aphanidermatum, 98%; with Plasmopara viticola, 97%; in the data set on Pythium ultimum, 89%. The LogP in data set [2] was 4.44 [a].
`C#CCCOC(=O)Nc1cccc(CO/N=C(/c2ccccc2)c2noc(=O)n2C)n1` [Example 3]: the Eff. % was 100% with Pythium irregulare; 98% in the data set with Phytophthora infestans [1]; 95% with Pythium aphanidermatum; 100% with Plasmopara viticola; 93% with Pythium ultimum. For the same compound, the LogP in data set [2] was 3.27 [a].
Regarding `CCCCC(=O)Nc1cccc(CO/N=C(/c2ccccc2)c2noc(=O)n2C)n1` [Example 15], the Eff. % in the data set on Pythium irregulare was 100%; with Phytophthora infestans [1], 98%; with Pythium aphanidermatum it was 98%; in the data set with Plasmopara viticola it was 97%; with Phytophthora infestans [3], 99%; with Pythium ultimum, 96%. In addition, the LogP in data set [2] was 3.51 [a].
As for `Cn1c(/C(=N\OCc2cccc(NC(=O)CCCCl)n2)c2ccccc2)noc1=O` [Example 34], the Eff. % in the data set with Alternaria brassicae is 100%; in the data set on Phytophthora infestans [3], 99%. Moreover, the LogP in [2] was 3.27 [a].
On to `C#CCC(C)(C)OC(=O)Nc1cccc(CO/N=C(/c2ccccc2)c2noc(=O)n2C)n1` [Example 39], for which the Eff. % amounted to 83% in the data set on Alternaria brassicae; 81% with Uromyces appendiculatus; 97% in the data set with Plasmopara viticola; 100% in the data set on Phytophthora infestans [3]; 98% with Puccinia recondita. For the same compound, the LogP in data set [2] is 3.94 [a].
Turning to `Cn1c(/C(=N\OCc2cccc(NC(=O)c3cccc(F)c3)n2)c2cccc(F)c2)noc1=O` [Example 42], the figures for the Eff. % with Pyricularia grisea and in the data set with Phytophthora infestans [3] were 71% and 92%, respectively. The LogP in [2] is 3.79 [a].
Turning to `CC(C)CCCC(=O)Nc1cccc(CO/N=C(/c2ccccc2)c2noc(=O)n2C)n1` [Example 95], the Eff. % in the data set with Pyricularia grisea is given as 70%; with Plasmopara viticola it was 100%; in the data set on Phytophthora infestans [3], 100%. In data set [2], the LogP was 4.25 [a].
On to `C=CCOC(=O)Nc1cccc(CO/N=C(/c2ccccc2)c2noc(=O)n2C)n1` [Example 109], for which the Eff. % in the data set on Pyricularia grisea is 70%; in the data set with Phytophthora infestans [3] it was 93%. In addition, the LogP in data set [2] was 3.42 [a].
`CCCCCC(=O)Nc1cccc(CO/N=C(/c2ccccc2)c2noc(=O)n2C)n1` [Example 111]: the Eff. % with Alternaria brassicae is 70%; in data set [4], 100%; in the data set with Uromyces appendiculatus it was 72%; with Phytophthora infestans [1], 95%; in the data set with Plasmopara viticola, 100%; in the data set on Phytophthora infestans [3], 100%. The LogP in data set [2] is 3.89 [a].
`C=CCCCCC(=O)Nc1cccc(CO/N=C(/c2ccccc2)c2noc(=O)n2C)n1` [Example 167]: the Eff. % turned out to be 96% in the data set with Pyricularia grisea, 86% with Plasmopara viticola and 98% with Phytophthora infestans [3]. In [2], the LogP was 3.89 [a].
As to `Cn1c(/C(=N\OCc2cccc(NC(=O)OCc3ccccc3)n2)c2ccccc2)noc1=O` [Example 168], the Eff. % in the data set with Pythium irregulare was found to be 100%; in the data set with Phytophthora infestans [1], 92%; with Pythium aphanidermatum, 92%; in the data set with Plasmopara viticola, 100%; with Phytophthora infestans [3], 99%; with Pythium ultimum, 70%. The LogP in data set [2] was 3.99 [a].
With `COc1ccccc1OCC(=O)Nc1nc(CO/N=C(/c2ccccc2)c2noc(=O)n2C)cs1` [Example 171], the Eff. % with Uromyces appendiculatus is recorded as 82%; in the data set on Pyricularia grisea it was 80%; in the data set on Phytophthora infestans [3], 100%. Moreover, the LogP in [2] is 3.55 [a].
As to `CCOCC(C)OC(=O)Nc1cccc(CO/N=C(/c2ccccc2)c2noc(=O)n2C)n1` (stereo not drawn) [Example 199], the Eff. % in the data set with Pythium irregulare stood at 100%; with Phytophthora infestans [1], 97%; with Pythium aphanidermatum it was 99%; in the data set with Plasmopara viticola, 100%; in the data set with Pythium ultimum, 96%. For the same compound, the LogP in [2] was 3.53 [a].
In the case of `Cn1c(/C(=N\OCc2cccc(NC(=O)C3OCCc4ccccc43)n2)c2ccccc2)noc1=O` (stereo not drawn) [Example 227], the Eff. % turned out to be 96% with Pyricularia grisea and 100% in the data set on Phytophthora infestans [3]. The log partition coefficient (LogP) in data set [2] is 4.1 [a].
For `Cn1c(C(=NOCc2csc(NC(=O)c3ccc(Cl)cc3Cl)n2)c2ccccc2)noc1=O` [Example 262], the Eff. % in the data set on Alternaria brassicae is 83%; in the data set with Phytophthora infestans [3], 78%. Besides, the LogP in data set [2] is 3.94 [a].
In the case of `CCCOC(=O)Nc1nc(CON=C(c2ccccc2)c2noc(=O)n2C)cs1` [Example 265], the Eff. % in the data set with Pyricularia grisea was determined as 70%; with Phytophthora infestans [3] it was 93%. The LogP in data set [2] is 3.35 [a].
Turning to `CCCC(C)OC(=O)Nc1cccc(CO/N=C(/c2ccccc2)c2noc(=O)n2C)n1` (stereo not drawn) [Example 282], the Eff. % was 90% with Pythium irregulare; 92% in the data set with Phytophthora infestans [1]; 100% in the data set with Pythium aphanidermatum; 96% in the data set with Plasmopara viticola; 98% in the data set with Phytophthora infestans [3]. Further, the log partition coefficient (LogP) in data set [2] was 4.36 [a].
As for `Cn1c(/C(=N\OCc2cccc(NC(=O)OC(CCl)CCl)n2)c2ccccc2)noc1=O` [Example 306], the Eff. % with Pyricularia grisea is 90%; with Phytophthora infestans [3], 100%. In data set [2], the LogP is 3.83 [a].
As to `Cc1ccc(/C(=N/OCc2csc(N)n2)c2noc(=O)[nH]2)cc1` [Example 308], the Eff. % with Alternaria brassicae is reported as 90%; in [4], 100%; with Phytophthora infestans [3] it was 89%; in the data set on Puccinia recondita, 94%. The LogP in data set [2] is 1.84 [a].
`Cn1c(/C(=N\OCc2cccc(NC(=O)c3ccc(F)cc3)n2)c2ccccc2)noc1=O` [Example 364]: the Eff. % is recorded as 92% in the data set on Alternaria brassicae, 100% in the data set on Plasmopara viticola and 98% with Phytophthora infestans [3]. For the same compound, in [2], the LogP was 3.62 [a].
